Assay results reported in patent publication US20240376084A1, “INHIBITORS OF ALPHA-HEMOLYSIN OF STAPHYLOCOCCUS AUREUS” (Helmholtz-Zentrum Fur Infektionsforschung GmbH, priority 2021, published 2024).

What was measured:
[1] = biological target: S. aureus Alpha hemolysin (Staphylococcus aureus, UniProt P09616); assay: cell-based; conditions: A549-LDH Assay activity
[2] = biological target: hemolysin alpha from Staphylococcus aureus (Staphylococcus aureus, UniProt P09616); assay: cell-based
Chain of hemolysin alpha from Staphylococcus aureus (P09616 27-319 limits assumed): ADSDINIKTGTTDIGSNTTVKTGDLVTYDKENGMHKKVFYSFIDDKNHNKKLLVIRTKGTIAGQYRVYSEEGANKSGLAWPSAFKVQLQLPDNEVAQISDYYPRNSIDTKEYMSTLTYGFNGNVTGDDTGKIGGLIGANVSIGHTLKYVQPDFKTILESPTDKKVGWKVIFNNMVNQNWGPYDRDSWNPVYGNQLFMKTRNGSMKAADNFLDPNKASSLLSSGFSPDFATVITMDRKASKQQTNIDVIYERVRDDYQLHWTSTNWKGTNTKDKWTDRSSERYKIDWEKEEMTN

Chain of S. aureus Alpha hemolysin (P09616 27-319 limits assumed): as above

Compound: COc1ccc(-c2ccc(NS(=O)(=O)c3cc4[nH]c(=O)c(=O)[nH]c4cc3C)cc2Cl)cc1F [Compound 320, N-[3-chloro-4-(3-fluoro-4-methoxy-phenyl)phenyl]-7-methyl-2,3-dioxo-1,4-dihydroquinoxaline-6-sulfonamide]
- EC50 [1]: < 30 nM
- EC50 [2]: < 30 nM

Compound: Cc1cc2[nH]c(=O)c(=O)[nH]c2cc1S(=O)(=O)Nc1ccc(N2CCOCC2(C)C)c(Cl)c1 [Compound 202, N-(3-chloro-4-(3,3-dimethylmorpholino)phenyl)-7-methyl-2,3-dioxo-1,2,3,4-tetrahydroquinoxaline-6-sulfonamide]
- EC50 [1]: 100 to 1000 nM
- EC50 [2]: 100 to 1000 nM

Compound: Cc1cc2[nH]c(=O)c(=O)[nH]c2cc1S(=O)(=O)Nc1ccc(-c2ccc3c(c2)NCC3)c(Cl)c1 [Compound 13, N-(3-chloro-4-(indolin-6-yl)phenyl)-7-methyl-2,3-dioxo-1,2,3,4-tetrahydroquinoxaline-6-sulfonamide]
- EC50 [1]: 100 to 1000 nM
- IC50 [2]: < 30 nM

Compound: Cc1cc2[nH]c(=O)c(=O)[nH]c2cc1S(=O)(=O)Nc1cc(C)c(-c2ccsc2)c(C)c1 [Compound 42, N-(3,5-dimethyl-4-(thiophen-3-yl)phenyl)-7-methyl-2,3-dioxo-1,2,3,4-tetrahydroquinoxaline-6-sulfonamide]
- EC50 [1]: 100 to 1000 nM
- IC50 [2]: 30 to 100 nM

Compound: Cc1cc2[nH]c(=O)c(=O)[nH]c2cc1S(=O)(=O)Nc1ccc(Cl)cc1 [Compound 177, N-(4-chlorophenyl)-7-methyl-2,3-dioxo-1,2,3,4-tetrahydroquinoxaline-6-sulfonamide]
- EC50 [1]: 100 to 1000 nM
- IC50 [2]: 100 to 1000 nM

Compound: Cc1ccc(-c2ccc(NS(=O)(=O)c3cc4[nH]c(=O)c(=O)[nH]c4cc3C)cc2Cl)o1 [Compound 69, N-(3-chloro-4-(5-methylfuran-2-yl)phenyl)-7-methyl-2,3-dioxo-1,2,3,4-tetrahydroquinoxaline-6-sulfonamide]
- EC50 [1]: 1000 to 6000 nM
- IC50 [2]: 30 to 100 nM

Compound: Cc1cc2[nH]c(=O)c(=O)[nH]c2cc1S(=O)(=O)Nc1ccc(-c2cccc(OCCN(C)C)c2)c(Cl)c1 [Compound 331, N-[3-chloro-4-[3-[2-(dimethylamino)ethoxy]phenyl]phenyl]-7-methyl-2,3-dioxo-1,4-dihydroquinoxaline-6-sulfonamide]
- EC50 [1]: 100 to 1000 nM
- EC50 [2]: 100 to 1000 nM

Compound: Cc1cc(C)cc(-c2ccc(NS(=O)(=O)c3cc4[nH]c(=O)c(=O)[nH]c4cc3C)cc2Cl)c1 [Compound 248, N-[3-chloro-4-(3,5-dimethylphenyl)phenyl]-7-methyl-2,3-dioxo-1,4-dihydroquinoxaline-6-sulfonamide]
- EC50 [1]: 100 to 1000 nM
- EC50 [2]: 100 to 1000 nM

Compound: Cc1cc2[nH]c(=O)c(=O)[nH]c2cc1S(=O)(=O)Nc1ccc(-c2cc(F)c3c(c2)NCCO3)c(Cl)c1 [Compound 357, N-[3-chloro-4-(8-fluoro-3,4-dihydro-2H-1,4-benzoxazin-6-yl)phenyl]-7-methyl-2,3-dioxo-1,4-dihydroquinoxaline-6-sulfonamide]
- EC50 [1]: 100 to 1000 nM
- EC50 [2]: < 30 nM

Compound: O=c1[nH]c2cc(F)c(S(=O)(=O)Nc3ccc(C4CC4)cc3)cc2[nH]c1=O [Compound 68, N-(4-cyclopropylphenyl)-7-fluoro-2,3-dioxo-1,2,3,4-tetrahydroquinoxaline-6-sulfonamide]
- EC50 [1]: 100 to 1000 nM
- IC50 [2]: 30 to 100 nM

Compound: Cc1cc2[nH]c(=O)c(=O)[nH]c2cc1S(=O)(=O)Nc1ccc(-c2ccc3c(c2)OCO3)c(Cl)c1 [Compound 247, N-[4-(1,3-benzodioxol-5-yl)-3-chloro-phenyl]-7-methyl-2,3-dioxo-1,4-dihydroquinoxaline-6-sulfonamide]
- EC50 [1]: 30 to 100 nM
- EC50 [2]: < 30 nM

Compound: COc1ccccc1-c1ccc(NS(=O)(=O)c2cc3[nH]c(=O)c(=O)[nH]c3cc2C)cc1Cl [Compound 72, N-(2-chloro-2′-methoxy-[1,1′-biphenyl]-4-yl)-7-methyl-2,3-dioxo-1,2,3,4-tetrahydroquinoxaline-6-sulfonamide]
- EC50 [1]: 100 to 1000 nM
- IC50 [2]: 100 to 1000 nM

Compound: O=c1[nH]c2cc(Cl)c(S(=O)(=O)Nc3ccc(C(F)(F)F)c(Cl)c3)cc2[nH]c1=O [Compound 143, 7-chloro-N-(3-chloro-4-(trifluoromethyl)phenyl)-2,3-dioxo-1,2,3,4-tetrahydroquinoxaline-6-sulfonamide]
- EC50 [1]: 1000 to 6000 nM
- IC50 [2]: 100 to 1000 nM

Compound: Cc1cc2[nH]c(=O)c(=O)[nH]c2cc1S(=O)(=O)Nc1ccc(-c2ccnc(Cl)c2)c(Cl)c1 [Compound 30, N-(3-chloro-4-(2-chloropyridin-4-yl)phenyl)-7-methyl-2,3-dioxo-1,2,3,4-tetrahydroquinoxaline-6-sulfonamide]
- EC50 [1]: 30 to 100 nM
- IC50 [2]: < 30 nM

Compound: O=c1[nH]c2cc(C(F)F)c(S(=O)(=O)Nc3ccc(OC(F)(F)F)cc3)cc2[nH]c1=O [Compound 218, 7-(difluoromethyl)-2,3-dioxo-N-(4-(trifluoromethoxy)phenyl)-1,2,3,4-tetrahydroquinoxaline-6-sulfonamide]
- EC50 [1]: 100 to 1000 nM
- EC50 [2]: 100 to 1000 nM

Compound: O=c1[nH]c2cc(OC3CC3)c(S(=O)(=O)Nc3ccc(OC(F)(F)F)cc3)cc2[nH]c1=O [Compound 382, 7-(cyclopropoxy)-2,3-dioxo-N-[4-(trifluoromethoxy)phenyl]-1,4-dihydroquinoxaline-6-sulfonamide]
- EC50 [1]: 100 to 1000 nM
- EC50 [2]: 1000 to 3500 nM

Compound: Cc1cc2[nH]c(=O)c(=O)[nH]c2cc1S(=O)(=O)Nc1ccc(-c2ccc(C#N)c(N(C)C)c2)c(Cl)c1 [Compound 360, N-[3-chloro-4-[4-cyano-3-(dimethylamino)phenyl]phenyl]-7-methyl-2,3-dioxo-1,4-dihydroquinoxaline-6-sulfonamide]
- EC50 [1]: 100 to 1000 nM
- EC50 [2]: 30 to 100 nM

Compound: O=c1[nH]c2cc(Cl)c(S(=O)(=O)Nc3ccc(-c4ccccc4)c(Cl)c3)cc2[nH]c1=O [Compound 14, 7-chloro-N-(2-chloro-[1,1′-biphenyl]-4-yl)-2,3-dioxo-1,2,3,4-tetrahydroquinoxaline-6-sulfonamide]
- EC50 [1]: 100 to 1000 nM
- IC50 [2]: < 30 nM

Compound: Cc1cc(NS(=O)(=O)c2cc3[nH]c(=O)c(=O)[nH]c3cc2Cl)ccc1-c1ccoc1 [Compound 88, 7-chloro-N-(4-(furan-3-yl)-3-methylphenyl)-2,3-dioxo-1,2,3,4-tetrahydroquinoxaline-6-sulfonamide]
- EC50 [1]: 100 to 1000 nM
- IC50 [2]: 30 to 100 nM

Compound: Cc1cc2[nH]c(=O)c(=O)[nH]c2cc1S(=O)(=O)Nc1ccc(OC(F)(F)F)cc1 [Compound 28, 7-methyl-2,3-dioxo-N-(4-(trifluoromethoxy)phenyl)-1,2,3,4-tetrahydroquinoxaline-6-sulfonamide]
- EC50 [1]: < 30 nM
- IC50 [2]: < 30 nM

Compound: Cc1cc2[nH]c(=O)c(=O)[nH]c2cc1S(=O)(=O)Nc1ccc(-c2ccccc2C(N)=O)cc1 [Compound 126, 4′-((7-methyl-2,3-dioxo-1,2,3,4-tetrahydroquinoxaline)-6-sulfonamido)-[1,1′-biphenyl]-2-carboxamide]
- EC50 [1]: 100 to 1000 nM
- IC50 [2]: 1000 to 3500 nM

Compound: Cc1cc2[nH]c(=O)c(=O)[nH]c2cc1S(=O)(=O)Nc1cc(C)c(-c2ccccc2)c(C)c1 [Compound 73, N-(2,6-dimethyl-[1,1′-biphenyl]-4-yl)-7-methyl-2,3-dioxo-1,2,3,4-tetrahydroquinoxaline-6-sulfonamide]
- EC50 [1]: 100 to 1000 nM
- IC50 [2]: 100 to 1000 nM

Compound: Cc1cc2[nH]c(=O)c(=O)[nH]c2cc1S(=O)(=O)Nc1cc(C)c(-c2ccoc2)c(C)c1 [Compound 107, N-(4-(furan-3-yl)-3,5-dimethylphenyl)-7-methyl-2,3-dioxo-1,2,3,4-tetrahydroquinoxaline-6-sulfonamide]
- EC50 [1]: 30 to 100 nM
- IC50 [2]: 100 to 1000 nM

Compound: Cc1cc2[nH]c(=O)c(=O)[nH]c2cc1S(=O)(=O)Nc1ccc(C2CCCCC2)c(Cl)c1 [Compound 284, N-(3-chloro-4-cyclohexyl-phenyl)-7-methyl-2,3-dioxo-1,4-dihydroquinoxaline-6-sulfonamide]
- EC50 [1]: 100 to 1000 nM
- EC50 [2]: 30 to 100 nM

Compound: COCCn1cc(-c2ccc(NS(=O)(=O)c3cc4[nH]c(=O)c(=O)[nH]c4cc3C)cc2Cl)cn1 [Compound 344, N-[3-chloro-4-[1-(2-methoxyethyl)pyrazol-4-yl]phenyl]-7-methyl-2,3-dioxo-1,4-dihydroquinoxaline-6-sulfonamide]
- EC50 [1]: 1000 to 6000 nM
- EC50 [2]: 1000 to 3500 nM

Compound: C#Cc1cc(NS(=O)(=O)c2cc3[nH]c(=O)c(=O)[nH]c3cc2C)ccc1-c1ccc2cc[nH]c2c1 [Compound 301, N-[3-ethynyl-4-(1H-indol-6-yl)phenyl]-7-methyl-2,3-dioxo-1,4-dihydroquinoxaline-6-sulfonamide]
- EC50 [1]: < 30 nM
- EC50 [2]: < 30 nM

Compound: Cc1cc2[nH]c(=O)c(=O)[nH]c2cc1S(=O)(=O)Nc1ccc(-c2cncnc2)c(Cl)c1 [Compound 66, N-(3-chloro-4-(pyrimidin-5-yl)phenyl)-7-methyl-2,3-dioxo-1,2,3,4-tetrahydroquinoxaline-6-sulfonamide]
- EC50 [1]: 100 to 1000 nM
- IC50 [2]: 30 to 100 nM

Compound: O=c1[nH]c2cc(F)c(S(=O)(=O)Nc3ccc(-c4cccc(N5CCCC5)c4)c(Cl)c3)cc2[nH]c1=O [Compound 27, N-(2-chloro-3′-(pyrrolidin-1-yl)-[1,1′-biphenyl]-4-yl)-7-fluoro-2,3-dioxo-1,2,3,4-tetrahydroquinoxaline-6-sulfonamide]
- EC50 [1]: 1000 to 6000 nM
- IC50 [2]: < 30 nM

Compound: Cc1cc2[nH]c(=O)c(=O)[nH]c2cc1S(=O)(=O)Nc1ccc(-c2cccc(P(C)(C)=O)c2)c(Cl)c1 [Compound 312, N-[3-chloro-4-(3-dimethylphosphorylphenyl)phenyl]-7-methyl-2,3-dioxo-1,4-dihydroquinoxaline-6-sulfonamide]
- EC50 [1]: 100 to 1000 nM
- EC50 [2]: 100 to 1000 nM

Compound: COc1ccc(-c2ncc(NS(=O)(=O)c3cc4[nH]c(=O)c(=O)[nH]c4cc3C)cc2Cl)cc1F [Compound 303, N-[5-chloro-6-(3-fluoro-4-methoxy-phenyl)-3-pyridyl]-7-methyl-2,3-dioxo-1,4-dihydroquinoxaline-6-sulfonamide]
- EC50 [1]: 100 to 1000 nM
- EC50 [2]: 100 to 1000 nM

Compound: Cc1cc2[nH]c(=O)c(=O)[nH]c2cc1S(=O)(=O)Nc1ccc(-c2cccc(Br)c2)c(Cl)c1 [Compound 310, N-[4-(3-bromophenyl)-3-chloro-phenyl]-7-methyl-2,3-dioxo-1,4-dihydroquinoxaline-6-sulfonamide]
- EC50 [1]: 100 to 1000 nM
- EC50 [2]: < 30 nM
